Paper PMC6270976, “Pharmacokinetic Study in Mice of Galphimine-A, an Anxiolytic Compound from Galphimia glauca” (Molecules, 2014)

Assay: Stability of G–A in mouse brain tissue homogenate under handling conditions
Type: in vitro ADME
Settings: for Observed Concentration ± S.D.: n = 6
Procedure: The stability of G–A in mice plasma and brain was assessed by analyzing replicates (n = 6) of QC samples at concentrations of 0.8, 4.0 and 10 μg/mL for mice plasma and brain. The investigation covered expected conditions during all of the sample storage and process periods, which included the stability data from freeze/thaw, bench-top, autosampler and long–term stability test. For all stability studies, freshly prepared and stability testing QC samples were evaluated by using freshly prepared standard curves for the measurement. The concentrations obtained from all stability studies were compared with the freshly prepared QC samples, and the percentage concentration deviation was calculated. The analytes were considered stable in mouse plasma and brain when the concentration difference between the freshly prepared samples and the stability samples was less than 15%.

[1] = brain tissue, 3 Freeze/thaw cycles (−70 °C), nominal 0.80 μg/mL
[2] = brain tissue, 3 Freeze/thaw cycles (−70 °C), nominal 4.00 μg/mL
[3] = brain tissue, 3 Freeze/thaw cycles (−70 °C), nominal 10.0 μg/mL
[4] = brain tissue, Autosampler stability (4 °C; 8 h), nominal 0.80 μg/mL
[5] = brain tissue, Autosampler stability (4 °C; 8 h), nominal 4.00 μg/mL
[6] = brain tissue, Autosampler stability (4 °C; 8 h), nominal 10.0 μg/mL
[7] = brain tissue, Long–term stability (−70 °C; 1 month), nominal 0.80 μg/mL
[8] = brain tissue, Long–term stability (−70 °C; 1 month), nominal 4.00 μg/mL
[9] = brain tissue, Long–term stability (−70 °C; 1 month), nominal 10.0 μg/mL

Time analyzable in the autosampler tray with acceptable precision and accuracy (brain tissue samples, 4 °C): over 8 h | Long-term storage stability (time stable) (brain tissue samples, −70 °C): over 1 month | Accuracy Bias [1]: 3.75% | Observed Concentration ± S.D. [1]: 0.83 ± 0.08 µg/mL | Accuracy Bias [2]: 9.00% | Observed Concentration ± S.D. [2]: 4.36 ± 0.34 µg/mL | Accuracy Bias [3]: 3.60% | Observed Concentration ± S.D. [3]: 10.36 ± 0.52 µg/mL | Accuracy Bias [4]: 8.75% | Observed Concentration ± S.D. [4]: 0.87 ± 0.11 µg/mL | Accuracy Bias [5]: −10.0% | Observed Concentration ± S.D. [5]: 3.60 ± 0.33 µg/mL | Accuracy Bias [6]: −1.70% | Observed Concentration ± S.D. [6]: 9.83 ± 0.43 µg/mL | Accuracy Bias [7]: −10.00% | Observed Concentration ± S.D. [7]: 0.72 ± 0.10 µg/mL | Accuracy Bias [8]: −6.75% | Observed Concentration ± S.D. [8]: 3.73 ± 0.41 µg/mL | Accuracy Bias [9]: 4.30% | Observed Concentration ± S.D. [9]: 10.43 ± 0.98 µg/mL | Freeze/thaw stability (brain tissue, three cycles, stored at −70 °C and thawed to room temperature): stable
Structure (SMILES): COC(=O)[C@@]12CC[C@]3(C)C([C@H](O)[C@H](O)[C@@]4([C@@H](C)O)COC(=O)C=C[C@H]43)[C@@]1(C)CC[C@@]1(C)CC=C(C)C[C@]12O (stereo partly drawn) [G–A, galphimine-A]
